{"source": "patent US20100215653A1", "about": "“METHODS OF TREATING NEOPLASTIC, AUTOIMMUNE AND INFLAMMATORY DISEASES” (Seattle Genetics, Inc., priority 2006, published 2010)", "key": {"HEL 92.1.7 cells": {"test_system": "HEL 92.1.7 cells", "assay": "Complement-dependent cytotoxicity (CDC) activity", "format": "cell-based, human", "details": "HEL 92.1.7 cells preincubated 2 hours with drug before HuM195", "procedure": "The purpose of this study was to determine whether the cytotoxic effects of an anti-CD33 antibody (HuM195) on AML cells could be enhanced by combination treatment with chemotherapeutic drugs. An MDR^+, CD33-positive AML cell line (HEL 92.1.7) was either untreated or preincubated with the indicated concentrations of thalidomide or 5-azacytidine for two hours prior to exposure to the anti-CD33 Ab. Cytotoxic activity was measured using a complement-dependent cytotoxicity (CDC) activity."}, "HL-60 cells": {"test_system": "HL-60 cells", "assay": "HL-60 disseminated AML model in mice", "format": "in vivo", "details": "low doses of cytarabine alone (FIG. 22)", "procedure": "Mice were implanted with an AML cell line, HL-60, as follows: 5 million HL-60 cells were injected intravenously. The mice were treated with lintuzumab (10 mg/kg, q4dx4, ip), cytarabine (1 mg/kg, 5 mg/kg or 25 mg/kg, q1dx10, ip; or 50 mg/kg or 100 mg/kg, q2dx5, ip) or lintuzumab with cytarabine (dosed as described previously). Treatment began on day one. Referring to FIG. 22, the control mice or mice treated with placebo (0.9% saline) were removed from the study by day 80, due to tumor progression.\nTo confirm the data of the in vitro study, mice were implanted with an AML cell line, HL-60, as follows: 5 million HL-60 cells were injected intravenously. […] Treatment began on day one. Referring to FIG. 24, the control mice were removed from the study by about day 60 due to tumor progression. Mice treated with lenalidomide were removed from study by about day 90 for similar reasons.\nThe MDR-negative HL60 cell line and the MDR-positive HEL9217 and TF1-α cell lines were used. […] Disease symptoms typically developed between about 35 and about 80 days, and included hind limb paralysis, scruffy coat, weight loss, palpable tumors, and/or tumor masses in bone, peritoneal cavity, or soft tissues. Human CD33+ tumor cells were detected in the blood, bone marrow, and lymph nodes of the majority of the mice by flow cytometry (FIG. 25). Solid tumors associated with bone or soft tissues were found in 20 to 60% of the mice."}, "[1]": {"test_system": "AML tumor cells (KG-1 HEL9217, and TF1α)", "assay": "ADCC, 51Cr release assay with NK effector cells", "format": "cell-based, human", "details": "NK cells pre-treated 2 to 3 h with drug before addition to target cells (FIG. 23)", "procedure": "Target AML tumor cells (KG-1 HEL9217, and TF1α) were labeled with Na^51CrO4 and mixed with enriched CD16^+ effector (NK) cells, prepared using PBMCs from normal donors. The effector to target cell ratio was 10:1. […] Macrophages were labeled with CD11b−FITC or CD14-FITC antibody. Flow cytometric analyses of dual labeled (PKH67+CD11b+ or PKH67+CD14+) cells was used to determine specific uptake (phagocytosis). […] Media were collected 18 h later and analyzed by ELISA for IL-8 or MCP-1.\nViable NK cells were pre-treated for 2 to 3 h with lenalidomide or thalidomide (as described in FIG. 23) prior to addition to target cells."}, "[2]": {"biological_target": "CD33 on human cells (AML cell lines HL60, KG-1, HEL9217, TF1-alpha, U937; primary human monocytes and macrophages) (human) (UniProt P20138)", "sequence (P20138 18-364)": "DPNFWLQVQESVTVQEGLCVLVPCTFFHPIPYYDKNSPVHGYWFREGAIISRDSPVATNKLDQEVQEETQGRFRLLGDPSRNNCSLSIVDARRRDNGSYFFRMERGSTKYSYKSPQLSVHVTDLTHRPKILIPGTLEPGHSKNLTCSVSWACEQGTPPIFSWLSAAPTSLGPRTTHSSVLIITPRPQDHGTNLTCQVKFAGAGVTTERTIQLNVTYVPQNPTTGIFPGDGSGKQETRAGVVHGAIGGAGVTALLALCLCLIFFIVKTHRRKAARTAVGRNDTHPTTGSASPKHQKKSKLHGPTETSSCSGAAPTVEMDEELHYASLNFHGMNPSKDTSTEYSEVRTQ", "assay": "apparent Kd, saturation binding by flow cytometry on HL60 cells"}, "[3]": {"biological_target": "CD33 on human cells (AML cell lines HL60, KG-1, HEL9217, TF1-alpha, U937; primary human monocytes and macrophages) (human) (UniProt P20138)", "assay": "apparent Kd, saturation binding by flow cytometry on TF1-alpha cells"}, "[4]": {"biological_target": "CD33 on human cells (AML cell lines HL60, KG-1, HEL9217, TF1-alpha, U937; primary human monocytes and macrophages) (human) (UniProt P20138)", "assay": "apparent Kd, saturation binding by flow cytometry on HEL9217 cells"}, "[5]": {"biological_target": "CD33 on human cells (AML cell lines HL60, KG-1, HEL9217, TF1-alpha, U937; primary human monocytes and macrophages) (human) (UniProt P20138)", "assay": "apparent Kd, saturation binding by flow cytometry on KG-1 cells"}, "[6]": {"assay": "Effector function (ADCC or CDC activity), data not shown", "format": "cell-based"}, "[7]": {"test_system": "primary human macrophages", "assay": "Macrophage migration in response to chemoattractants (CytoSelect Cell Migration Assay)", "format": "cell-based", "details": "10% human serum or 20% conditioned media from RPMI 8226 cells; p<0.05 (FIG. 21)", "procedure": "(§1) The migration of macrophages in response to challenge with plating media containing 10% human serum, 20% conditioned tumor cell media, or 50 ng/ml TGF-β, VEGF, TNF-α, or IFN-γ was evaluated using the CytoSelect Cell Migration Assay (Cell Biolabs, San Diego, Calif.). […] The study was stopped 18 hours later and migration was evaluated after dissociation of the cells from the membrane followed by detection with Cyquant GR dye.\nas §1, with “serum or” for “serum,”, “media” for “media, or 50 ng/ml TGF-β, VEGF, TNF-α, or IFN-γ”, “studies were” for “study was”, “h” for “hours”"}, "CD33 [8]": {"biological_target": "T1, CD33 (Homo sapiens, UniProt P20138)", "T1 sequence (P20138 18-364)": "as above", "assay": "Recruitment of SHP-1 / SHP-2 / Syk to CD33 (CD33 immunoprecipitation, Western blot)", "format": "cell-based", "set-up": "endogenous in cells; host or cells: HL-60, U937; primary human CD14+ monocytes and PBMC-derived macrophages", "details": "HL-60 and monocytes; 30 minutes (FIG. 16)", "procedure": "To determine whether the humanized M195 antibody also recruits SHP phosphatases, HL-60 cells were treated with soluble or cross-linked anti-CD33 antibodies. Cell extracts were prepared and CD33 was immunoprecipitated with an anti-CD33 antibody (MY9 clone). Western blotting was performed with an anti-SHP-1 antibody (sc-287; Santa Cruz Biotechnology, Inc., Santa Cruz, Calif.).\n(§2) To prepare deglycosylated SGN-33, the antibody was treated with PN-glycosidase F (New England BioLabs, Ipswich, Mass.). Deglycosylation was confirmed by CE-SDS. […] Cell lysates were prepared and CD33 immunoprecipitated using an anti-CD33 rabbit polyclonal antibody (Santa Cruz Biotechnology, Santa Cruz, Calif.) prior to SDS PAGE gel electrophoresis. Western blot analyses of these samples were performed using the 4G10 phosphotyrosine antibody (Upstate Biotechnology, Temucula, Calif.), anti-CD33 antibody (NovoCastra, Norwell, Mass.), and anti-SHP-1 antibody (Calbiochem, San Diego, Calif.). Control lysate for SHP-1 was prepared from a B cell lymphoma cell line."}, "CD33 [9]": {"biological_target": "T1, CD33", "assay": "CD33 tyrosine phosphorylation (CD33 immunoprecipitation, anti-phosphotyrosine Western blot)", "format": "cell-based", "set-up": "endogenous in cells; host or cells: HL-60, U937; primary human CD14+ monocytes and PBMC-derived macrophages", "details": "HL-60 AML cells (FIG. 16)", "procedure": "CD33-positive cell lines were treated with anti-CD33 antibodies (lintuzumab and certain commercially available antibodies). Cell extracts were prepared and CD33 was immunoprecipitated using an anti-CD33 antibody (MY9 clone; Beckman Coulter, Calif.). Western blotting was performed with an anti-phosphotyrosine antibody (4G10; Upstate Biotechnologies, Inc., Lake Placid, N.Y.).\nas §2, with “Deglycosylation” for “To prepare deglycosylated SGN-33, the antibody was treated with PN-glycosidase F (New England BioLabs, Ipswich, Mass.). Deglycosylation”"}}, "data": [{"molecule": "Nc1ncn([C@@H]2O[C@H](CO)[C@@H](O)[C@H]2O)c(=O)n1", "note": "[5-azacytidine]", "values": [{"measurement": "sensitivity to HuM195-mediated CDC activity after preincubation with drug", "setting": "HEL 92.1.7 cells", "result": "enhanced the sensitivity"}]}, {"molecule": "Nc1ccn([C@@H]2O[C@H](CO)[C@@H](O)[C@@H]2O)c(=O)n1", "note": "[cytarabine, reference compound]", "values": [{"measurement": "percent survival rates compared to untreated controls", "setting": "HL-60 cells", "result": "increasing percent survival rates"}]}, {"molecule": "Nc1cccc2c1CN(C1CCC(=O)NC1=O)C2=O", "note": "(stereo not shown) [lenalidomide, reference compound]", "values": [{"measurement": "effect on SGN-33 mediated ADCC", "setting": "[1]", "result": "enhanced SGN-33 mediated ADCC"}]}, {"molecule": "O=C1CCC(N2C(=O)c3ccccc3C2=O)C(=O)N1", "note": "(stereo not shown) [thalidomide, reference compound]", "values": [{"measurement": "effect on SGN-33 mediated ADCC", "setting": "[1]", "result": "enhanced SGN-33 mediated ADCC"}, {"measurement": "sensitivity to HuM195-mediated CDC activity after preincubation with drug", "setting": "HEL 92.1.7 cells", "result": "enhanced the sensitivity"}]}, {"molecule": "SGN-33, humanized M195 anti-CD33 antibody", "values": [{"measurement": "Kd", "setting": "[2]", "result": 0.123, "unit": "nM"}, {"measurement": "Kd", "setting": "[3]", "result": 0.099, "unit": "nM"}, {"measurement": "Kd", "setting": "[4]", "result": 0.144, "unit": "nM"}, {"measurement": "Kd", "setting": "[5]", "result": 0.07, "unit": "nM"}]}, {"molecule": "deglycosylated SGN-33: SGN-33 treated with PN-glycosidase F; does not interact with Fc receptors", "values": [{"measurement": "effector function, including ADCC or CDC activity", "setting": "[6]", "result": "did not mediate effector function"}, {"measurement": "macrophage migration", "setting": "[7]", "result": "significantly reduced the migration"}, {"measurement": "recruitment of SHP-1 to the CD33 complex", "setting": "CD33 [8]", "result": "resulted in recruitment of SHP-1 to the CD33 complex"}, {"measurement": "phosphorylation of CD33", "setting": "CD33 [9]", "result": "induced phosphorylation of CD33"}]}]}
